According to patent publication US20190022225A1, “PROTOCOL FOR INCREASING LIFE EXPECTANCY IN A TEST SUBJECT” (Mayo Foundation for Medical Education and Research, priority 2015, published 2019):

Key:
[1] = test system: p21, p16, IL-1a, CXCL-1, IL-6, IL-8 expression in senescent IMR90 cells; test: qPCR of senescence markers and SASP factors in irradiated senescent IMR90 cells treated with Nutlin-3a; format: cell-based, human
Procedure: Primary human fibroblast (IMR90) cells were induced to senesce by applying 10 Gy of irradiation. Seven days after irradiation (Day 0), cells were treated with 10 μM Nutlin-3a or vehicle (DMSO) for nine days (Day 9). The drug or vehicle was refreshed every three days. Drug/vehicle was removed at Day 9 and the cells were cultured for an additional three days (Day 12) in media without drug or DMSO. Cells were then collected, mRNA extracted, and cDNA prepared. Quantitative PCR (qPCR) was then performed to detect expression of various genes. Cells were also collected at Day 12 after drug/vehicle had been removed for three days. The data are presented as an average of three samples. Data were normalized to actin and depicted as a ratio to non-senescent cells.

[2] = test system: senescent foreskin fibroblasts (HCA2 and BJ), lung fibroblasts (IMR90); test: Cell count survival assay of Nutlin-3a on irradiation-induced senescent fibroblasts; format: cell-based, human; conditions: 10 Gy irradiated HCA2, BJ, Nutlin-3a 0, 2.5, 10 μM for 9 days
Procedure: (§1) Foreskin fibroblast cell lines HCA2 and BJ, lung fibroblast cell line IMR90, and mouse embryonic fibroblasts were seeded in six-well plates and induced to senesce with 10 Gy of ionizing radiation (IR) or a 24 hr treatment with doxorubicin (Doxo). Senescent phenotype was allowed to develop for at least 7 days, at which point a cell count was made to determine the baseline number of cells. Nutlin-3a treatment was then initiated for a period of at least 9 days. Media alone or media with drug as appropriate was refreshed at least every three days. At the end of the assay time period, cells are counted. Each condition was seeded in three plate wells and counted independently. Initial cell count serves as a control to determine the induction of senescence, as compared to the last day count without nutlin treatment. Initial non-senescent cell count serves as a proxy to determine Nutlin-3a toxicity.
(§2) Foreskin fibroblast cell lines HCA2 and BJ, lung fibroblast cell line IMR90, and mouse embryonic fibroblasts were exposed to 10 Gy of ionizing radiation (IR) to induce senescence. […] Percent survival was calculated as [cell count on day 9 of Nutlin-3a treatment/initial cell count on first day of Nutlin-3a treatment].

[3] = test system: senescent mouse embryonic fibroblasts (MEF); test: Cell count survival assay of Nutlin-3a on irradiation-induced senescent MEFs; format: cell-based; conditions: 10 Gy irradiated MEF; Nutlin-3a 0, 2.5, 10 μM for 9 days
Procedure: as §1, §2

[4] = test system: pATM, γH2AX, IkBa, MDM2, p53, p21 in senescent IMR90 cells; test: Immunoblot of DNA damage response proteins in irradiated senescent IMR90 cells treated with Nutlin-3a; format: cell-based, human
Procedure: Primary human fibroblast (IMR90) cells were induced to senesce by applying 10 Gy of irradiation. Seven days after irradiation (Day 0), cells were treated with 10 μM Nutlin-3a or vehicle (DMSO) for nine days (Day 9). The drug or vehicle was refreshed every three days. Drug/vehicle was removed at Day 9 and the cells were cultured for an additional six days in media without drug or DMSO, changing media every three days. Cells were collected at Day 0 (non-senescent cells), Day 9, Day 12, and Day 15, and protein extracted and processed for immunoblotting (Western blotting). Two samples were processed at each time point; the results are provided for one sample in FIG. 14.

[5] = test system: LDLR−/−/3MR double transgenic mice fed a HFD; test: Atherosclerosis model, LDLR-/-/3MR double transgenic mice on HFD, ganciclovir weeks 12-13 and 14-15; format: in vivo, mouse; conditions: 25 mg/kg ip; versus LDLR−/−/HFD controls
Procedure: The study illustrated in FIG. 43B assessed the extent to which […] based clearance of senescent cells from LDLR^−/− /3MR double transgenic mice improves pre-existing atherogenic disease. LDLR^−/− MR double transgenic mice (10 weeks) and LDLR^−/− single transgenic mice (10 weeks) are fed a high fat diet beginning at Week 0 until Week 12. Gancyclovir is administered to both groups of mice (25 mg/kg intraperitoneally) from weeks 12-13 and weeks 14-15. At week 16, the level of plaque and the number of senescent cells in the plaques are determined.

[6] = test system: LDLR−/−/3MR double transgenic mice; test: Atherosclerosis model, LDLR-/-/3MR mice, 100 day ganciclovir treatment period; format: in vivo, mouse
Procedure: The impact of clearance of senescent cells on the stability and size of mature atherosclerotic plaques was studied in LDLR^−/− MR double transgenic mice. From 10 weeks of age, LDLR^−/− MR double transgenic mice (10 weeks) and LDLR^−/− single transgenic mice (control) were fed a high fat diet (Harlan Teklad TD.88137) having 42% calories from fat beginning at Week 0 until Week 12.5, when the mice were switched to normal chow diet. Both groups of mice were treated with ganciclovir from week 12.5 over the next 100 days, with each treatment cycle comprising 5 days of ganciclovir (25 mg/kg intraperitoneally daily) and 14 days off. At the end of the 100 day treatment period, the mice were sacrificed, plasma and tissues were collected, and atherosclerosis was quantitated. Descending aortas were dissected and stained with Sudan IV to visualize the plaque lipids. […] Plaques from ganciclovir-treated LDLR^−/− control and LDLR^−/− MR mice (see dashed circled plaques in FIGS. 55A-B, respectively) were harvested and cut into cross-sections and stained with […] the general architecture of the atherosclerotic plaques. “#” indicates fat located on the outside of the aorta (see FIG. 55A). The plaques marked with an “*” and “*” in FIGS. 55A and B, respectively, are shown as stained cross-sections in FIGS. 55B and D, respectively. […] The plaque from the control mice has identifiable “lipid pockets” accumulating within. […] Disruption or tear in the cap of a lipid-rich plaque is a trigger for coronary events through exposure of plaque thrombogenic components to platelets and clotting components of the blood. Plaques that grow more rapidly as a result of rapid lipid deposition and have thin fibrin caps are prone to rupture. Slowly growing plaques with mature fibrin caps tend to stabilize and are not prone to rupture. Taken together, these experiments indicate that removal of senescent cells may affect atherosclerotic plaque architecture and have a stabilizing effect.

| Compound | level of p21 mRNA, ratio to non-senescent cells ([1]; 10 μM, day 9) | level of IL-1a mRNA ([1]; 10 μM, day 9 and day 12) | levels of CXCL-1, IL-6 and IL-8 mRNA ([1]; 10 μM, day 9 and day 12) | level of p16 mRNA ([1]; 10 μM, drug present (day 9)) | level of p16 mRNA ([1]; day 12, three days after drug removal) | cell survival of senescent fibroblasts (percent survival) [2] | cell survival of senescent MEF (percent survival) [3] | phosphorylation of the kinase ATM (pATM S1981) ([4]; 10 μM, also after drug removal) | level of IkBa ([4]; after drug is removed) | phosphorylation of H2AX (γH2AX) ([4]; after treatment and after drug removal) | levels of MDM2, p53 and p21 protein ([4]; drug present, decreased when drug removed) | % of the aorta covered with plaque [5] | plaque cross-sectional area [5] | % of the aorta covered in plaques ([6]; area of Sudan IV staining, versus LDLR−/− control mice) | atherosclerotic plaques in descending aorta (Sudan IV staining) ([6]; cycles of 5 days 25 mg/kg ip daily, 14 days off, 100 days) | plaque morphology ([6]; stained cross-sections) |
| --- | --- | --- | --- | --- | --- | --- | --- | --- | --- | --- | --- | --- | --- | --- | --- | --- |
| COc1ccc(C2=N[C@@H](c3ccc(Cl)cc3)[C@@H](c3ccc(Cl)cc3)N2C(=O)N2CCNC(=O)C2)c(OC(C)C)c1 [Nutlin-3a] | approximately 90 fold | decreased only after Nutlin-3a had been removed | reduced when Nutlin-3a was present and remained lower after drug removal | did not change | decrease | reduced cell survival | reduced cell survival | lower | approaches the level of IkBa in non-senescent cells | declining levels of phosphorylation | elevated |  |  |  |  |  |
| Nc1nc(O)c2ncn(COC(CO)CO)c2n1 [ganciclovir] |  |  |  |  |  |  |  |  |  |  |  | reduces the % of the aorta covered with plaque | reduced the plaque cross-sectional area | significantly lower | fewer atherosclerotic plaques with less intense staining | presence of a thick fibrin cap and the absence of lipid pockets |
